Measurements taken from PMC11345844, “Non-Covalent Inhibitors of SARS-CoV-2 Papain-Like Protease (PLpro): In Vitro and In Vivo Antiviral Activity” (Journal of Medicinal Chemistry, 2024).
“Also recorded” adds a separate entry of the source. Like-named read-outs stand apart in the source and are kept apart here.

How the values were obtained:
[1] = system: SARS-CoV-2; details: read-out: Reported cell-based antiviral potency EC50; cited from earlier work
[2] = Plasma exposure after 50 mg/kg i.p. in male C57BL/6 mice
[3] = system: Vero E6 cells; details: cited from earlier work
[4] = system: A549-hACE2 cells; details: cited from earlier work
[5] = system: PLpro; details: cited from earlier work; for IC50: read-out: Reported enzyme inhibition potency IC50, see referenced publications for assay details
[6] = in vivo; details: male, C57BL/6, mouse, plasma
[7] = Plasma protein binding; details: human
[8] = Human plasma stability
[9] = in vivo; details: male, hamster, plasma
[10] = i.v. hamster, 2 mg/kg
[11] = in vitro; details: human
[12] = system: SARS-CoV-2 (strain WA1); experiment: Antiviral plaque assay in Vero cells with P-gp inhibitor CP-100356; type: cell-based
[13] = system: PLpro; details: compared with all inhibitors studied; cited from earlier work
[14] = Plasma PK of 32 (Figure S1)
[15] = system: SARS-CoV-2 (strain WA1); type: cell-based
[16] = in vivo; details: C57BL/6, mouse, plasma, ip, 25 mg/kg
[17] = Comparison of plasma PK of 10 and 42 (Figure S3); details: 25 mg/kg i.p. (Figure S3)
[18] = 64 25 mg/kg i.p., between 0.5 to 5 h after administration
[19] = system: COVID-19; details: human, in vivo, po; cited from earlier work
[20] = system: SARS-CoV-2; details: cited from earlier work

## Cc1ccc(NC2CNC2)cc1C(=O)N[C@H](C)c1cccc(-c2ccc(CN3CCCC3)s2)c1 [Compound 2]
[1]
  EC50: 1.2 ± 0.2 µM
[2]
  toxicity observation: overt toxicity
[3]
  potency against viral infection: low micromolar potency
[4]
  potency against viral infection: low micromolar potency

## CC(=O)Nc1cccc(CNC(=O)C2CCN([C@H](C)c3cccc4ccccc34)CC2)c1 [Compound 3]
[5]
  IC50: 2.69 ± 0.34 µM

## Nc1ccc2cc3ccc(N)cc3nc2c1 [Compound 6, proflavine]
[5]
  IC50: 1.46 µM

## COC(=O)/C=C/CNC(=O)CNC(=O)[C@H](CN)NC(=O)[C@H](CCc1nc2ccccc2s1)NC(C)=O [Compound 8]
[5]; at 100 μM
  Reported enzyme inhibition: almost complete inhibition

## Cc1ccc(NC2CNC2)cc1C(=O)N[C@H](C)c1cccc(-c2ccc(CNC3CCCC3)s2)c1 [Compound 10]
[6]; iv, 2 mg/kg
  Cmax: 734 ± 125 ng/mL
[6]; sc, 50 mg/kg
  Cmax: 3190 ± 667 ng/mL
i.v. mouse, 2 mg/kg
  plasma clobs: 111 ± 16 mL/min/kg
i.v./s.c., mice and hamsters, minor species differences
  bioavailability: good
[7]
  fraction unbound: 0.033
[8]
  half-life: 60 h
[3]
  potency against viral infection: low micromolar potency
[9]; iv, 2 mg/kg
  Cmax: 2920 ± 474 ng/mL
[9]; sc, 20 mg/kg
  Cmax: 1220 ± 276 ng/mL
[10]
  plasma clobs: 75 ± 5 mL/min/kg
[11]
  CC50: 43 ± 1.8 µM
[4]
  potency against viral infection: low micromolar potency

## Cc1ccc(NC2CNC2)cc1C(=O)N[C@H](C)c1cccc(-c2ccc(CN[C@H]3CC[C@@H](O)C3)s2)c1 [Compound 11]
[12]
  efficacy in inhibiting viral replication (plaque assay): least efficacious compound
[13]
  off-rate: lowest off-rate

## Cc1ccc(NC2CNC2)cc1C(=O)N[C@H](C)c1cccc(-c2cc(C)c(CNC3CCCC3)s2)c1 [Compound 16, (R)-5-(Azetidin-3-ylamino)-N-(1-(3-(5-((cyclopentylamino)methyl)-4-methylthiophen-2-yl)phenyl)ethyl)-2 Methylbenzamide]
[11]
  CC50: 27 ± 1.4 µM

## Cc1ccc(NC2CNC2)cc1C(=O)N[C@H](C)c1cccc(-c2ccc(CNC(=O)C3CCCC3)s2)c1 [Compound 32, (R)-5-(Azetidin-3-ylamino)-N-(1-(3-(5-(cyclopentanecarboxamidomethyl)thiophen-2-yl)phenyl)ethyl)-2-methylbenzamide]
[12]
  efficacy in inhibiting viral replication (plaque assay): almost complete loss of antiviral activity
[14]; 25 mg/kg i.p. (Figure S1)
  bioavailability administered i.p.: good bioavailability
[14]; p.o. 100 mg/kg in corn oil, gavage (Figure S1)
  oral bioavailability: without oral bioavailability
[15]
  antiviral activity by RT-PCR of viral RNA: lack of activity

## Cc1ccc(NC2CNC2)cc1C(=O)N[C@H](C)c1cccc(-c2ccc(CN[C@H]3CC[C@@H](C(=O)O)C3)s2)c1 [Compound 39, (1R,3S)-3-(((5-(3-((R)-1-(5-(Azetidin-3-ylamino)-2-methylbenzamido)ethyl)phenyl)thiophen-2-yl)methyl)amino)cyclopentane-1-carboxylic Acid]
[16]
  Cmax: 7910 ng/mL
  half-life: 2 h

## Cc1ccc(OC2CNC2)cc1C(=O)N[C@H](C)c1cccc(-c2ccc(CN3CCCC3)s2)c1 [Compound 42, (R)-5-(Azetidin-3-yloxy)-2-methyl-N-(1-(3-(5-(pyrrolidin-1-ylmethyl)thiophen-2-yl)phenyl)ethyl)benzamide]
[12]
  efficacy in inhibiting viral replication (plaque assay): relatively higher efficacy
[17]
  in vivo exposure compared to 10: significantly lower exposure

## Cc1ccc(OC2CCNCC2)cc1C(=O)N[C@H](C)c1cccc(-c2ccc(CNC3CCCC3)s2)c1 [Compound 44, (R)-N-(1-(3-(5-((Cyclopentylamino)methyl)thiophen-2-yl)phenyl)ethyl)-2-methyl-5-(piperidin-4-yloxy)benzamide]
[11]
  CC50: 22 ± 0.9 µM

## Cc1ccc(OCCN)cc1C(=O)N[C@H](C)c1cccc(-c2ccc(CN3CCCC3)s2)c1 [Compound 48, (R)-5-(2-Aminoethoxy)-2-methyl-N-(1-(3-(5-(pyrrolidin-1-ylmethyl)thiophen-2-yl)phenyl)ethyl)benzamide]
[12]
  efficacy in inhibiting viral replication (plaque assay): low efficacy

## CC(=O)OC(C)OC(=O)N1CC(Nc2ccc(C)c(C(=O)N[C@H](C)c3cccc(-c4ccc(CNC(=O)C5CCCC5)s4)c3)c2)C1 (stereo partly drawn) [Compound 62, 1-Acetoxyethyl 3-((3-(((R)-1-(3-(5-(cyclopentanecarboxamidomethyl)thiophen-2-yl)phenyl)ethyl)carbamoyl)-4-methylphenyl)amino)azetidine-1-carboxylate]
[15]
  antiviral activity by RT-PCR of viral RNA: not greatly improved

## Cc1ccc(NC2CNC2)cc1C(=O)N[C@H](C)c1cccc(-c2ccc(CN[C@H]3CC[C@@H](C(=O)OC[C@H]4O[C@@H](n5ccc(NO)nc5=O)[C@H](O)[C@@H]4O)C3)s2)c1 [Compound 64, ((3S,4R,5R)-3,4-Dihydroxy-5-(4-(hydroxyamino)-2-oxopyrimidin-1(2H)-yl)tetrahydrofuran-2-yl)methyl (1R,3S)-3-(((5-(3-((R)-1-(5-(azetidin-3-ylamino)-2-methylbenzamido)ethyl)phenyl)thiophen-2-yl)methyl)amino)cyclopentane-1-carboxylate]
[18]
  detection of mutual prodrug in plasma: not detectable; also recorded: undetectable

## CC(C)C(=O)OC[C@H]1O[C@@H](n2cc/c(=N\O)[nH]c2=O)[C@H](O)[C@@H]1O [Compound 65, Molnupiravir]
[19]
  efficacy against hospitalization or death: about 30%

## CC(C)(C)[C@H](NC(=O)C(F)(F)F)C(=O)N1C[C@H]2[C@@H]([C@H]1C(=O)N[C@H](C#N)C[C@@H]1CCNC1=O)C2(C)C [nirmatrelvir]
[20]
  left-shift in the response caused by CP-100356: ca. 100 fold
